The record followed here is US11040981B2, “Pyrrolotriazine compounds and methods of inhibiting TAM kinases” (Syros Pharmaceuticals, Inc., priority 2017, dated 2021).

Test [1] deals with T1, MERTK (Homo sapiens, UniProt Q12866).
T1 sequence (Q12866 21-999): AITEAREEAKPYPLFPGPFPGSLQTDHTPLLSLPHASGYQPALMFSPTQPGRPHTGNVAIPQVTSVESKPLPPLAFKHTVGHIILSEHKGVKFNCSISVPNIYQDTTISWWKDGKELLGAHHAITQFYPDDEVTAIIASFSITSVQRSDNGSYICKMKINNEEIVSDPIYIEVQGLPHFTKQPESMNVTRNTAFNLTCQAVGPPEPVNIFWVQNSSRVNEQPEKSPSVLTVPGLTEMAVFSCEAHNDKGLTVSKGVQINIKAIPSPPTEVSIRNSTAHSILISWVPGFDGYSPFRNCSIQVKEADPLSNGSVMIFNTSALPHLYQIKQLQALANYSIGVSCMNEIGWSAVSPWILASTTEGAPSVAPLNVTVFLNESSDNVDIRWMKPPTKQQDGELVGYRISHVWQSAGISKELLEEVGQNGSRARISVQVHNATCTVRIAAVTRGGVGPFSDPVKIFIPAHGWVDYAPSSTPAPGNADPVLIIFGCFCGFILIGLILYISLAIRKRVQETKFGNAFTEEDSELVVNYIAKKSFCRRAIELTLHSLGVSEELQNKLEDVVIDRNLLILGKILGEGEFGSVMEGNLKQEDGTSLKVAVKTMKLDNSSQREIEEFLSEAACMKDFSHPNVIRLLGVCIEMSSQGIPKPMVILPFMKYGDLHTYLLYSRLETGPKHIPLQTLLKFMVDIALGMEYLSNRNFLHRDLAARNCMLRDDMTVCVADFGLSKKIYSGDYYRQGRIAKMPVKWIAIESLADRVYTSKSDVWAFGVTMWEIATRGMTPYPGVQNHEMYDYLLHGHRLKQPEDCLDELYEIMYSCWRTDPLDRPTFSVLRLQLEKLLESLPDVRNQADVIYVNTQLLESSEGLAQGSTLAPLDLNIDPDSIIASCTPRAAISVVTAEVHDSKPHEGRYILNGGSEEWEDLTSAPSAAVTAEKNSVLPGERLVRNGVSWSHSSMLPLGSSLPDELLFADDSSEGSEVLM
In words: TR-FRET kinase activity assay, MERTK. The class given is biochemical. Summed up: (§1)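 Enzyme, fluorescent peptide substrate and compound were mixed, and the reaction was started with ATP at each kinase's Km, in 50 mM HEPES pH 7.5, 10 mM MgCl2, 1 mM EGTA, 0.01% Brij 35, 1 mM DTT at RT. After 60 minutes EDTA quench, Eu-labelled phospho-specific antibody was added for 30 minutes, and IC50 was derived from TR-FRET signal loss.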
(In general: TR-FRET usually uses a lanthanide donor and a delayed reading to cut background.)

Test [2] has as its target T2, FLT3 (Homo sapiens, UniProt P36888).
T2 sequence (P36888 27-993): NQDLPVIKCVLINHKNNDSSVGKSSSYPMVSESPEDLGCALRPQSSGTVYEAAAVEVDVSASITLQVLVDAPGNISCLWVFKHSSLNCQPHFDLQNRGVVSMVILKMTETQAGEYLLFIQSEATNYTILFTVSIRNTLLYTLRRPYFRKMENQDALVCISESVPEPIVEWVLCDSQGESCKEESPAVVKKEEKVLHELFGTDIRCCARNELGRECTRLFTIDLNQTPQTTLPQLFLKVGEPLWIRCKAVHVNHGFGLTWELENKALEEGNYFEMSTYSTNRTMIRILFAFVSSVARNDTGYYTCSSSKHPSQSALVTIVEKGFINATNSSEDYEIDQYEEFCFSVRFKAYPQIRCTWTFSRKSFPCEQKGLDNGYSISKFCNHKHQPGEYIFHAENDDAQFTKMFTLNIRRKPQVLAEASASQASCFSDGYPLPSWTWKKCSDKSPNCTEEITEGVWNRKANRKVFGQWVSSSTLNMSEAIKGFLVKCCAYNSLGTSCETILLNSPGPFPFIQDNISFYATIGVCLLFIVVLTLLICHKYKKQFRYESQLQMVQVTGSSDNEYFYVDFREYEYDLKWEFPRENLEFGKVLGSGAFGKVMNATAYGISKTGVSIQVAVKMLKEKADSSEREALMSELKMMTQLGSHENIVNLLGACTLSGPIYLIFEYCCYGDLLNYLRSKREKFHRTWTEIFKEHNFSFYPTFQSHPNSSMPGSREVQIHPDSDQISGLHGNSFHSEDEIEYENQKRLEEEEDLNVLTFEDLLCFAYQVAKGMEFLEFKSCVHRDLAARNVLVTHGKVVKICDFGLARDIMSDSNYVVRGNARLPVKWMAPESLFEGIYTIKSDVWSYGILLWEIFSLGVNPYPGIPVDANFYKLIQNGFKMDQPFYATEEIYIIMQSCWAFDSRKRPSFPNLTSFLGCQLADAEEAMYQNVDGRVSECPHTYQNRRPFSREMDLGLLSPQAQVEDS
The test can be described thus: TR-FRET kinase activity assay, FLT3. In kind it is biochemical. The settings on record: ATP at Km, 60 minutes. Summed up: as §1

The structures appear in SMILES notation.

What is called IC50 is the concentration at which inhibition is half-maximal. Take `COC[C@H](C)Nc1ncc2c(-c3ccc(N4CCN(C)CC4)nc3)cc([C@H]3CC[C@H](O)CC3)n2n1` [Compound 271]: the IC50 in test [1] (TR-FRET activity assay, ATP at Km, 60 minutes, read-out: Mer IC50) is at most 100 nM; in test [2], at most 100 nM. The “FLT3/Mer ratio (FLT3 IC50/Mer IC50)” value in test [1] (ratio of Mer to FLT3: FLT3 IC50/Mer IC50) is “++ (“++” represents a ratio of between 10 and 100)”.
